The pIC50 is the negative decadic logarithm of the IC50, by convention in mol/L. What is called pEC50 is −log10 of the EC50, conventionally taken in molar units. For orientation: inhibition means the change of the read-out against control, counted positive when it falls.

Consider 20 molecules from patent US20060089378A1 (priority 2004, published 2006).

pEC50, pIC50: −log10 of the molar value. Read-outs that look alike come from different tables or passages of the source.

The target in one experiment is T1, Cannabinoid CB1 Receptor (Homo sapiens, UniProt P21554).
T1 construct: expressed in transfected cells
Description: Binding assay for CB1 agonists or inverse agonists (radioligand competition, membranes of transfected SK-N-MC cells). Particulars: for inhibition at 0.2 µM: read-out: Cannabinoid CB1 Receptor Binding percent inhibition. On the technique in general: Loss of bound radioactivity is the signal in a displacement assay; it reports binding, not function.

Another experiment addresses T2, Cannabinoid CB2 Receptor (Homo sapiens, UniProt P34972).
T2 construct: expressed in transfected cells
The experiment is described as follows: Binding assay for CB2 agonists or inverse agonists (radioligand competition, membranes of transfected SK-N-MC cells). The conditions noted are these: for inhibition at 0.2 µM: read-out: Cannabinoid CB2 Receptor Binding percent inhibition.

Another experiment deals with CB1 receptor (human) (Homo sapiens, UniProt P21554). Description: cell-based. The conditions noted are these: for CB1 Receptor Functional Activity (change in functional activity, CRE β-gal): one compound concentration, β-galactosidase activity relative to vehicle treated cells.
A further experiment concerns the target T3, CB2 receptor (human) (Homo sapiens, UniProt P34972).
T3 construct: expressed in transfected cells
The experiment is described as follows: Functional cell-based assay, CB2 receptor mediated change in CRE β-gal expression (adenylate cyclase activity) in SK-N-MC cells.

[1] abbreviates: test concentration of 0.2 μM, compounds without an IC50 binding value.
[2] abbreviates: human CB2, SK-N-MC cell membranes, calculated by linear regression from percent inhibition at various concentrations, read-out: Cannabinoid CB2 Receptor Binding IC50.
Where [3] appears, read: human CB1, SK-N-MC cell membranes, calculated by linear regression from percent inhibition at various concentrations, read-out: Cannabinoid CB1 Receptor Binding IC50.

T2 sequence (P34972 whole entry): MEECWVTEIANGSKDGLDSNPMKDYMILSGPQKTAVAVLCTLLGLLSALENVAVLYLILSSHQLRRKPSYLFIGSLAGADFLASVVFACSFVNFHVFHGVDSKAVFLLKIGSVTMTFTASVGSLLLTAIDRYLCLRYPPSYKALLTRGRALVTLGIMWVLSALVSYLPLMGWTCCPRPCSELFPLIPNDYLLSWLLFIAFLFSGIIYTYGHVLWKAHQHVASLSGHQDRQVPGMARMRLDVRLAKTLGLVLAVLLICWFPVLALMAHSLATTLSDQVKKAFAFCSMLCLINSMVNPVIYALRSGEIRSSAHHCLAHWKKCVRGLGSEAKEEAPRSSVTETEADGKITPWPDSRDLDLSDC
T1 sequence (P21554 whole entry): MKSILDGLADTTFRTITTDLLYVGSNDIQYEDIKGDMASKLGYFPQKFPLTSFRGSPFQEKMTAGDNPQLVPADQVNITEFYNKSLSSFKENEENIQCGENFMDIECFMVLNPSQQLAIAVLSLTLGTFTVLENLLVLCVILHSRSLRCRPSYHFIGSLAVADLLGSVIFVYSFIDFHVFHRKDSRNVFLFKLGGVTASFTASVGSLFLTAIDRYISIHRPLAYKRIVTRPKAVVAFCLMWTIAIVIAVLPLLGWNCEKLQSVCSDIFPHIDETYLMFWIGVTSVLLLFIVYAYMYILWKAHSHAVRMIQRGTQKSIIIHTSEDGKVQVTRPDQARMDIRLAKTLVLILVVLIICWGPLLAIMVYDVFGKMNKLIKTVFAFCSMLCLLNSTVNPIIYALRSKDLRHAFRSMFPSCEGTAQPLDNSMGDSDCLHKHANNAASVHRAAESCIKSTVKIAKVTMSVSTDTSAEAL
Sequence of CB1 receptor (human) (P21554 whole entry): as above
T3 sequence (P34972 whole entry): as the sequence (P34972 whole entry) above

Consider `CC(=O)N1CCc2c(c(C(=O)NC3C4(C)CCC(C4)C3(C)C)nn2Cc2ccccc2)C1` (stereo not drawn) [Cpd 109, 5-acetyl-1-benzyl-4,5,6,7-tetrahydro-1H-pyrazolo[4,3-c]pyridine-3-carboxylic acid (1,3,3-trimethyl-bicyclo[2.2.1]hept-2-yl)-amide], for which the pIC50 at Cannabinoid CB1 Receptor was 5.89; at Cannabinoid CB2 Receptor, 7.10. This molecule also gave a negative-log EC50 (pEC50) on CB1 receptor (human) of 5.09.

Take `CC(C)(C)OC(=O)N1CCc2c(c(C(=O)NC3C4(C)CCC(C4)C3(C)C)nn2-c2ccccc2)C1` (stereo not drawn) [Cpd 111, 1-phenyl-3-(1,3,3-trimethyl-bicyclo[2.2.1]hept-2-ylcarbamoyl)-1,4,6,7-tetrahydro-pyrazolo[4,3-c]pyridine-5-carboxylic acid tert-butyl ester]: at Cannabinoid CB1 Receptor, the inhibition at 0.2 µM came out at 27%. The pIC50 on Cannabinoid CB2 Receptor is 7.00. The “CB1 Receptor Functional Activity (change in functional activity, CRE β-gal)” value at CB1 receptor (human) came out at 24%.

Consider `CC(=O)N1CCc2c(c(C(=O)NC3C4(C)CCC(C4)C3(C)C)nn2-c2ccccc2)C1` (stereo not drawn) [Cpd 112, 5-acetyl-1-phenyl-4,5,6,7-tetrahydro-1H-pyrazolo[4,3-c]pyridine-3-carboxylic acid (1,3,3-trimethyl-bicyclo[2.2.1]hept-2-yl)-amide], for which, on Cannabinoid CB1 Receptor (setting [1]), the inhibition at 0.2 µM stood at 44%. Moreover, the pIC50 at Cannabinoid CB2 Receptor was 7.00. Moreover, the “CB1 Receptor Functional Activity (change in functional activity, CRE β-gal)” value on CB1 receptor (human) came to 45%.

With `CCOC(=O)N1CCc2c(c(C(=O)NC3C4(C)CCC(C4)C3(C)C)nn2-c2ccccc2)C1` (stereo not drawn) [Cpd 113, 1-phenyl-3-(1,3,3-trimethyl-bicyclo[2.2.1]hept-2-ylcarbamoyl)-1,4,6,7-tetrahydro-pyrazolo[4,3-c]pyridine-5-carboxylic acid ethyl ester], the negative logarithm of the IC50 (pIC50) is 5.64 at Cannabinoid CB1 Receptor and 7.10 on Cannabinoid CB2 Receptor. Moreover, the “CB1 Receptor Functional Activity (change in functional activity, CRE β-gal)” value at CB1 receptor (human) is reported as 57%.

With `CCNC(=O)N1CCc2c(c(C(=O)NC3C4(C)CCC(C4)C3(C)C)nn2-c2ccccc2)C1` (stereo not drawn) [Cpd 114, 1-phenyl-1,4,6,7-tetrahydro-pyrazolo[4,3-c]pyridine-3,5-dicarboxylic acid 5-ethylamide 3-[(1,3,3-trimethyl-bicyclo[2.2.1]hept-2-yl)-amide]], the results for the inhibition at 0.2 µM at Cannabinoid CB1 Receptor and on Cannabinoid CB2 Receptor were 51% and 34%, respectively. Moreover, at CB1 receptor (human), the “CB1 Receptor Functional Activity (change in functional activity, CRE β-gal)” value was 51%.

Turning to `COC(=O)N1CCc2c(c(C(=O)NC3C4(C)CCC(C4)C3(C)C)nn2-c2ccccc2)C1` (stereo not drawn) [Cpd 115, 1-phenyl-3-(1,3,3-trimethyl-bicyclo[2.2.1]hept-2-ylcarbamoyl)-1,4,6,7-tetrahydro-pyrazolo[4,3-c]pyridine-5-carboxylic acid methyl ester], the pIC50 at Cannabinoid CB1 Receptor is 5.57; on Cannabinoid CB2 Receptor, 7.05. Besides, the “CB1 Receptor Functional Activity (change in functional activity, CRE β-gal)” value on CB1 receptor (human) is reported as 81%.

On to `CCCCn1nc(C(=O)NC2C3(C)CCC(C3)C2(C)C)c2c1CCN(C(=O)OC)C2` (stereo not drawn) [Cpd 116, 1-butyl-3-(1,3,3-trimethyl-bicyclo[2.2.1]hept-2-ylcarbamoyl)-1,4,6,7-tetrahydro-pyrazolo[4,3-c]pyridine-5-carboxylic acid methyl ester], for which, on Cannabinoid CB1 Receptor, the negative logarithm of the IC50 (pIC50) is 7.00. The inhibition at 0.2 µM at Cannabinoid CB2 Receptor turned out to be 53%. For the same molecule, on CB1 receptor (human), the pEC50 was 5.54.

With `CC12CCC(C1)C(C)(C)C2NC(=O)c1nn(C2CCCCC2)c2c1CNCC2` (stereo not drawn) [Cpd 118, 1-cyclohexyl-4,5,6,7-tetrahydro-1H-pyrazolo[4,3-c]pyridine-3-carboxylic acid (1,3,3-trimethyl-bicyclo[2.2.1]hept-2-yl)-amide], the values for the pIC50 at Cannabinoid CB1 Receptor and at Cannabinoid CB2 Receptor (setting [2]) were 6.10 and 5.74, respectively. The “CB1 Receptor Functional Activity (change in functional activity, CRE β-gal)” value at CB1 receptor (human) was determined as 4%.

Turning to `CCC(=O)N1CCc2c(c(C(=O)NC3C4(C)CCC(C4)C3(C)C)nn2C2CCCCC2)C1` (stereo not drawn) [Cpd 122, 1-cyclohexyl-5-propionyl-4,5,6,7-tetrahydro-1H-pyrazolo[4,3-c]pyridine-3-carboxylic acid (1,3,3-trimethyl-bicyclo[2.2.1]hept-2-yl)-amide], the pIC50 is 6.22 on Cannabinoid CB1 Receptor and 8.00 on Cannabinoid CB2 Receptor. This molecule also gave a negative-log EC50 (pEC50) on CB1 receptor (human) of 6.05.

Turning to `CC(=O)N1CCc2c(c(C(=O)NC3C4(C)CCC(C4)C3(C)C)nn2C2CCCCC2)C1` (stereo not drawn) [Cpd 123, 5-acetyl-1-cyclohexyl-4,5,6,7-tetrahydro-1H-pyrazolo[4,3-c]pyridine-3-carboxylic acid (1,3,3-trimethyl-bicyclo[2.2.1]hept-2-yl)-amide], the negative-log IC50 (pIC50) on Cannabinoid CB1 Receptor is 6.70; on Cannabinoid CB2 Receptor it was 7.40. Further, the pEC50 on CB2 receptor (human) is 7.85.

For `Cc1ccc(S(=O)(=O)N2CCc3c(c(C(=O)NC4C5(C)CCC(C5)C4(C)C)nn3Cc3ccccc3)C2)cc1` (stereo not drawn) [Cpd 125, 1-benzyl-5-(toluene-4-sulfonyl)-4,5,6,7-tetrahydro-1H-pyrazolo[4,3-c]pyridine-3-carboxylic acid (1,3,3-trimethyl-bicyclo[2.2.1]hept-2-yl)-amide], the negative logarithm of the IC50 (pIC50) on Cannabinoid CB1 Receptor (setting [3]) is 6.70; at Cannabinoid CB2 Receptor, 7.52. Moreover, the “CB1 Receptor Functional Activity (change in functional activity, CRE β-gal)” value on CB1 receptor (human) turned out to be 27%.

Take `CN(C)S(=O)(=O)N1CCc2c(c(C(=O)NC3C4(C)CCC(C4)C3(C)C)nn2C2CCCCC2)C1` (stereo not drawn) [Cpd 127, 1-cyclohexyl-5-dimethylsulfamoyl-4,5,6,7-tetrahydro-1H-pyrazolo[4,3-c]pyridine-3-carboxylic acid (1,3,3-trimethyl-bicyclo[2.2.1]hept-2-yl)-amide]: the pIC50 is 5.59 at Cannabinoid CB1 Receptor and 6.05 at Cannabinoid CB2 Receptor. At CB1 receptor (human), the “CB1 Receptor Functional Activity (change in functional activity, CRE β-gal)” value was determined as 28%.

Turning to `COC(=O)CN1CCc2c(c(C(=O)NC3C4(C)CCC(C4)C3(C)C)nn2C2CCCCC2)C1` (stereo not drawn) [Cpd 128, [1-cyclohexyl-3-(1,3,3-trimethyl-bicyclo[2.2.1]hept-2-ylcarbamoyl)-1,4,6,7-tetrahydro-pyrazolo[4,3-c]pyridin-5-yl]-acetic acid methyl ester], the values for the negative-log IC50 (pIC50) at Cannabinoid CB1 Receptor (setting [3]) and at Cannabinoid CB2 Receptor (setting [2]) were 6.15 and 6.40, respectively. Besides, the “CB1 Receptor Functional Activity (change in functional activity, CRE β-gal)” value at CB1 receptor (human) was −7%.

Turning to `COC(=O)N1CCc2c(c(C(=O)NC3C4CC5CC(C4)CC3C5)nn2C2CCCCC2)C1` (stereo not drawn) [Cpd 131, 3-(adamantan-2-ylcarbamoyl)-1-cyclohexyl-1,4,6,7-tetrahydro-pyrazolo[4,3-c]pyridine-5-carboxylic acid methyl ester], the negative-log IC50 (pIC50) is 5.57 at Cannabinoid CB1 Receptor (setting [3]) and 6.70 at Cannabinoid CB2 Receptor (setting [2]). Also, the “CB1 Receptor Functional Activity (change in functional activity, CRE β-gal)” value on CB1 receptor (human) is given as −49%.

With `CN(C)C(=O)N1CCc2c(c(C(=O)NC3C4CC5CC(C4)CC3C5)nn2C2CCCCC2)C1` (stereo not drawn) [Cpd 132, 1-cyclohexyl-1,4,6,7-tetrahydro-pyrazolo[4,3-c]pyridine-3,5-dicarboxylic acid 3-adamantan-2-ylamide 5-dimethylamide], the pIC50 at Cannabinoid CB1 Receptor (setting [3]) was 5.26; on Cannabinoid CB2 Receptor (setting [2]) it was 6.70. For the same molecule, at CB1 receptor (human), the “CB1 Receptor Functional Activity (change in functional activity, CRE β-gal)” value is given as −42%.

As for `CC(=O)N1C/C(=C\c2ccc(F)cc2)c2c(c(C(=O)N(C(C)=O)N3CCCCC3)nn2-c2ccc(Cl)cc2Cl)C1` [Cpd 134, (7E)-5-acetyl-1-(2,4-dichloro-phenyl)-7-(4-fluoro-benzylidene)-4,5,6,7-tetrahydro-1H-pyrazolo[4,3-c]pyridine-3-carboxylic acid acetyl-piperidin-1-yl-amide], the values for the inhibition at 0.2 µM at Cannabinoid CB1 Receptor and on Cannabinoid CB2 Receptor were 50% and 26%, respectively. Also, the negative logarithm of the EC50 (pEC50) at CB1 receptor (human) is 7.70.

At Cannabinoid CB1 Receptor, `C[C@@H](NC(=O)c1nn(-c2ccc(Cl)cc2Cl)c2c1CN(C(=O)OC(C)(C)C)C/C2=C\c1ccc(F)cc1)c1ccccn1` [Cpd 138, (7E)-1-(2,4-dichloro-phenyl)-7-(4-fluoro-benzylidene)-3-[(1R)-1-pyridin-2-yl-ethylcarbamoyl]-1,4,6,7-tetrahydro-pyrazolo[4,3-c]pyridine-5-carboxylic acid tert-butyl ester] showed a negative-log IC50 (pIC50) of 7.52. For the same molecule, at Cannabinoid CB2 Receptor, the inhibition at 0.2 µM was determined as 21%. This molecule had a pEC50 at CB1 receptor (human) of 8.05.

Turning to `C[C@@H](NC(=O)c1nn(-c2ccc(Cl)cc2Cl)c2c1CNC/C2=C\c1ccc(F)cc1)c1ccccn1` [Cpd 139, (7E)-1-(2,4-dichloro-phenyl)-7-(4-fluoro-benzylidene)-4,5,6,7-tetrahydro-1H-pyrazolo[4,3-c]pyridine-3-carboxylic acid [(1R)-1-pyridin-2-yl-ethyl]-amide], the pIC50 at Cannabinoid CB1 Receptor was 7.40. The inhibition at 0.2 µM at Cannabinoid CB2 Receptor amounted to 16%. This molecule had a pEC50 at CB1 receptor (human) of 7.52.

For the molecule `C[C@@H](NC(=O)c1nn(-c2ccc(Cl)cc2Cl)c2c1CN(S(C)(=O)=O)C/C2=C\c1ccc(F)cc1)c1ccccn1` [Cpd 140, (7E)-1-(2,4-dichloro-phenyl)-7-(4-fluoro-benzylidene)-5-methanesulfonyl-4,5,6,7-tetrahydro-1H-pyrazolo[4,3-c]pyridine-3-carboxylic acid [(1R)-1-pyridin-2-yl-ethyl]-amide], the inhibition at 0.2 µM at Cannabinoid CB1 Receptor is 96%; on Cannabinoid CB2 Receptor, 9%. The negative-log EC50 (pEC50) on CB1 receptor (human) is 8.70.

Consider “(7E)-1-(4-chloro-phenyl)-5-methanesulfonyl-7-(4-methoxy-benzylidene)-4,5,6,7-tetrahydro-1H-pyrazolo[4,3-c]pyridine-3-carboxylic acid (1-pyridin-2-yl-ethyl)-amide [Cpd 78]”, for which the pIC50 on Cannabinoid CB1 Receptor (setting [3]) is 8.15. In addition, the “Cannabinoid CB2 Receptor Binding percent inhibition” value on Cannabinoid CB2 Receptor (setting [1]) is given as 17%. Also, the negative logarithm of the EC50 (pEC50) at CB1 receptor (human) (SK-N-MC cells expressing CRE β-gal and human CB1, forskolin, β-galactosidase activity, varying compound concentrations, read-out: CB1 Receptor Functional Inverse Agonist EC50) was 8.52.
